According to paper PMC10584170, “Machine learning-based phenotypic imaging to characterise the targetable biology of Plasmodium falciparum male gametocytes for the development of transmission-blocking antimalarials” (PLOS Pathogens, 2023):
Read-outs that look alike come from different tables or passages of the source.

How the values were obtained:
[1] = tested on: P. falciparum female gametocytes; test: P. falciparum Dual Gamete Formation Assay (PfDGFA), female readout (Pfs25-positive female gametes); type: cell-based, Plasmodium falciparum NF54; conditions: for Selectivity ratio F: HepG2 Tox50 versus female IC50; for IC50: PfDGFA, 24 h incubation with gametocytes before induction, female gamete readout, read-out: Female IC50; for HitlevelF: number of replicates with >50% inhibition in the female readout
Outline: (§1)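 NF54 mature gametocytes (d14), cpd 24 h 37°C hypoxic gas; trigger: xanthurenic acid ookinete medium + Cy3 anti-Pfs25, 4°C 4 min → 28°C 4 min. Male: exflagellation centres, brightfield x6. Female: Pfs25+ gametes, fluorescence, +24 h 28°C dark.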

[2] = tested on: P. falciparum male gametocytes; test: P. falciparum Dual Gamete Formation Assay (PfDGFA), male readout (exflagellation); type: cell-based, Plasmodium falciparum NF54; conditions: for Selectivity Ratio M: HepG2 Tox50 versus male IC50; for IC50: PfDGFA, 24 h incubation with gametocytes before induction, exflagellation readout, read-out: Male IC50; for HitlevelM: number of replicates with >50% inhibition in the male readout
Outline: as §1

[3] = tested on: HepG2 cells; test: HepG2 cytotoxicity counter-screen; conditions: cytotoxic activity against HepG2 cells
[4] = Plasmodium falciparum, 2µM, 24h preincubation with gametocytes, average of replicates, read-out: Average inhibition female (%)
[5] = Plasmodium falciparum, 2µM, 24h preincubation with gametocytes, replicate R1, read-out: % inhibition female (individual replicates) R1
[6] = Plasmodium falciparum, 2µM, 24h preincubation with gametocytes, replicate R2, read-out: % inhibition female (individual replicates) R2
[7] = Plasmodium falciparum, 2µM, 24h preincubation with gametocytes, replicate R3, read-out: % inhibition female (individual replicates) R3
[8] = Plasmodium falciparum, 2µM, 24h preincubation with gametocytes, replicate R4, read-out: % inhibition female (individual replicates) R4
[9] = Plasmodium falciparum, 2µM, 24h preincubation with gametocytes, average of replicates, read-out: Average inhibition male (%)
[10] = Plasmodium falciparum, 2µM, 24h preincubation with gametocytes, replicate R1, read-out: % inhibition male (individual replicates) R1
[11] = Plasmodium falciparum, 2µM, 24h preincubation with gametocytes, replicate R2, read-out: % inhibition male (individual replicates) R2
[12] = Plasmodium falciparum, 2µM, 24h preincubation with gametocytes, replicate R3, read-out: % inhibition male (individual replicates) R3
[13] = Plasmodium falciparum, 2µM, 24h preincubation with gametocytes, replicate R4, read-out: % inhibition male (individual replicates) R4
[14] = Plasmodium falciparum, PfDGFA at 2µM, 24h preincubation with gametocytes, average of replicates, read-out: Average inhibition female (%)
[15] = Plasmodium falciparum, PfDGFA at 2µM, 24h preincubation with gametocytes, replicate R1, read-out: % inhibition female (individual replicates) R1
[16] = Plasmodium falciparum, PfDGFA at 2µM, 24h preincubation with gametocytes, replicate R2, read-out: % inhibition female (individual replicates) R2
[17] = Plasmodium falciparum, PfDGFA at 2µM, 24h preincubation with gametocytes, replicate R3, read-out: % inhibition female (individual replicates) R3
[18] = Plasmodium falciparum, PfDGFA at 2µM, 24h preincubation with gametocytes, replicate R4, read-out: % inhibition female (individual replicates) R4
[19] = Plasmodium falciparum, PfDGFA at 2µM, 24h preincubation with gametocytes, average of replicates, read-out: Average inhibition male (%)
[20] = Plasmodium falciparum, PfDGFA at 2µM, 24h preincubation with gametocytes, replicate R1, read-out: % inhibition male (individual replicates) R1
[21] = Plasmodium falciparum, PfDGFA at 2µM, 24h preincubation with gametocytes, replicate R2, read-out: % inhibition male (individual replicates) R2
[22] = Plasmodium falciparum, PfDGFA at 2µM, 24h preincubation with gametocytes, replicate R3, read-out: % inhibition male (individual replicates) R3
[23] = Plasmodium falciparum, PfDGFA at 2µM, 24h preincubation with gametocytes, replicate R4, read-out: % inhibition male (individual replicates) R4
[24] = 2µM, 24h preincubation with gametocytes, average of replicates
[25] = 2µM, 24h preincubation with gametocytes, replicate R1
[26] = 2µM, 24h preincubation with gametocytes, replicate R3
[27] = 2µM, 24h preincubation with gametocytes, replicate R4

Structure (SMILES) | Selectivity ratio F [1] | inhibition at 2 µM [1, 4] | inhibition at 2 µM [1, 5] | inhibition at 2 µM [1, 6] | inhibition at 2 µM [1, 7] | inhibition at 2 µM [1, 8] | IC50 ([1]; Plasmodium falciparum) | Selectivity Ratio M [2] | inhibition at 2 µM [2, 9] | inhibition at 2 µM [2, 10] | inhibition at 2 µM [2, 11] | inhibition at 2 µM [2, 12] | inhibition at 2 µM [2, 13] | IC50 ([2]; Plasmodium falciparum) | Tox50 [3] | other results
Cl.NC(=O)c1ccccc1Nc1nc(Nc2cccc(N3CCN(CCO)CC3)c2)ncc1Cl [TCMDC-134114] | 1.31 | 4.2% | 11.2% | 7.4% | -5% | 3.4% | > 10 µM | 28.08 | 96.1% | 97.9% | 97.4% | 96.2% | 92.9% | 470 nM | 13.07 µM | –
Cc1cc(Nc2ncc(C#N)c(Nc3ccccc3C(N)=O)n2)ccc1N1CCN(C)CC1.Cl [TCMDC-134115] | 0.14 | -14.3% | -7.3% | -13.1% | -26.9% | -10% | 7.4 µM | 28.49 | 96.2% | 97.3% | 97.1% | 88.6% | 102% | 40 nM | 1.03 µM | –
CN1CCN(c2ccc(Nc3ncc(C#N)c(Nc4ccccc4C(N)=O)n3)cc2)CC1.Cl [TCMDC-134116] | 0.4 | -1.7% | 7.5% | 3% | -11.3% | -6.1% | 9.17 µM | 137.11 | 100% | 98.7% | 101% | 97.3% | 104% | 30 nM | 3.71 µM | –
COc1ccc(Nc2ncc(C#N)c(Nc3ccccc3C(N)=O)n2)cc1N1CCN(C)CC1.Cl [TCMDC-134117] | 0.96 | -4.3% | -4.1% | -6.5% | -13.1% | 6.5% | > 10 µM | 100.74 | 97.4% | 98.2% | 100% | 93.5% | 98% | 100 nM | 9.58 µM | –
CN1CCC(NCc2ccc(-c3cnc(NCc4ccccc4)nc3)cc2)CC1.O=C(O)C(F)(F)F [TCMDC-134120] | 1.69 | – | – | – | – | – | 6.57 µM | 11.62 | – | – | – | – | – | 960 nM | 11.1 µM | inhibition at 2 µM [1, 14]: 24.9%; inhibition at 2 µM [1, 15]: 24.7%; inhibition at 2 µM [1, 16]: 16.8%; inhibition at 2 µM [1, 17]: -0.09%; inhibition at 2 µM [1, 18]: 58.4%; HitlevelF ([1]; 2µM): 1; inhibition at 2 µM [2, 19]: 86.5%; inhibition at 2 µM [2, 20]: 83.5%; inhibition at 2 µM [2, 21]: 87.5%; inhibition at 2 µM [2, 22]: 86.1%; inhibition at 2 µM [2, 23]: 88.9%; HitlevelM ([2]; 2µM): 4
CNC(=O)c1ccccc1Nc1nc(Nc2ccc(N3CCN(C)CC3)nc2)ncc1C.Cl [TCMDC-134123] | 0.34 | 0.025% | -2.2% | -9.9% | 9.7% | 2.5% | > 10 µM | 14.02 | 96.1% | 93.9% | 95.8% | – | 98.7% | 250 nM | 3.44 µM | –
CNC(=O)c1ccccc1Nc1nc(Nc2ccc(N3CCOCC3)cc2)ncc1Cl.Cl [TCMDC-134144] | 0.08 | – | – | – | – | – | > 10 µM | 4.53 | – | – | – | – | – | 180 nM | 0.82 µM | inhibition at 2 µM [1, 14]: 8.6%; inhibition at 2 µM [1, 15]: 12.4%; inhibition at 2 µM [1, 16]: 10.5%; inhibition at 2 µM [1, 17]: 10.7%; inhibition at 2 µM [1, 18]: 0.76%; HitlevelF ([1]; 2µM): 0; inhibition at 2 µM [2, 19]: 88.6%; inhibition at 2 µM [2, 20]: 93.6%; inhibition at 2 µM [2, 21]: 91.9%; inhibition at 2 µM [2, 22]: 82.6%; inhibition at 2 µM [2, 23]: 86.2%; HitlevelM ([2]; 2µM): 4
COc1ccc(Nc2ncc(OC)c(Nc3ccccc3C(N)=O)n2)cc1N1CCN(C)CC1.O=CO [TCMDC-134149] | 0.66 | 13.9% | 17.6% | 16.3% | 5.9% | 15.7% | 7.91 µM | 28.52 | 94.7% | 95.1% | 101% | 85.5% | 97.6% | 180 nM | 5.24 µM | –
COc1ccc(Nc2ncc(Cl)c(Nc3cccnc3C(N)=O)n2)cc1N1CCN(C)CC1.Cl [TCMDC-134163] | 0.3 | – | – | – | – | – | > 10 µM | 7.51 | – | – | – | – | – | 400 nM | 2.98 µM | inhibition at 2 µM [1, 14]: -4.7%; inhibition at 2 µM [1, 15]: 1.7%; inhibition at 2 µM [1, 16]: -23.4%; inhibition at 2 µM [1, 17]: -4.2%; inhibition at 2 µM [1, 18]: 7%; HitlevelF ([1]; 2µM): 0; inhibition at 2 µM [2, 19]: 79.9%; inhibition at 2 µM [2, 20]: 77.1%; inhibition at 2 µM [2, 21]: 88.9%; inhibition at 2 µM [2, 22]: 73.4%; inhibition at 2 µM [2, 23]: 80.2%; HitlevelM ([2]; 2µM): 4
CN1CCN(c2ccc(Nc3ncc(Cl)c(Nc4cccnc4C(N)=O)n3)cc2)CC1.Cl [TCMDC-134164] | 1.15 | -2.7% | -3.8% | 5.1% | -16.9% | 4.9% | 5.47 µM | 13.8 | 93.6% | 95.4% | 93.6% | 90.2% | 95.2% | 460 nM | 6.29 µM | –
Cc1ccc(C(C(=O)Nc2ccc(N3CCNCC3)c(Cl)c2)c2ccccc2)cc1 (stereo not drawn) [TCMDC-134292] | 1.13 | 61.9% | 54.2% | 48.2% | 79.2% | 66% | > 10 µM | 27.18 | 93.6% | 96.8% | 85.1% | 98.4% | 94.1% | 420 nM | 11.32 µM | –
COc1c(C2CCN(CCCCNC(=O)c3ccc(-c4ccc(Cl)cc4)c(OCCN(C)C)c3)CC2)ccc2c1CCCC2 [TCMDC-134371] | 0.69 | – | – | – | – | – | – | 3.17 | – | – | – | – | – | – | 5.71 µM | Average inhibition female (%) [1, 24]: 90.2%; % inhibition female (individual replicates) R1 [1, 25]: 90.8%; % inhibition female (individual replicates) R3 [1, 26]: 96.4%; % inhibition female (individual replicates) R4 [1, 27]: 89.7%; IC50 [1]: 8.29 µM; Average inhibition male (%) [2, 24]: 98.8%; % inhibition male (individual replicates) R1 [2, 25]: 97.3%; % inhibition male (individual replicates) R3 [2, 26]: 99.5%; % inhibition male (individual replicates) R4 [2, 27]: 100.2%; IC50 [2]: 1800 nM
